Laboratory results taken from ChEMBL document CHEMBL2440009, “Discovery of GSK2656157: An Optimized PERK Inhibitor Selected for Preclinical Development” (ACS Med Chem Lett, 2013).

Tests used:
Cytochrome P450 2C8 = target: T1, Cytochrome P450 2C8 (Homo sapiens, UniProt P10632); assay: Inhibition of CYP2C8 in human liver microsomes using paclitaxel as substrate after 5 to 60 mins by LC-MS/MS analysis; format: ADME, Microsome
T1 sequence (P10632 whole entry): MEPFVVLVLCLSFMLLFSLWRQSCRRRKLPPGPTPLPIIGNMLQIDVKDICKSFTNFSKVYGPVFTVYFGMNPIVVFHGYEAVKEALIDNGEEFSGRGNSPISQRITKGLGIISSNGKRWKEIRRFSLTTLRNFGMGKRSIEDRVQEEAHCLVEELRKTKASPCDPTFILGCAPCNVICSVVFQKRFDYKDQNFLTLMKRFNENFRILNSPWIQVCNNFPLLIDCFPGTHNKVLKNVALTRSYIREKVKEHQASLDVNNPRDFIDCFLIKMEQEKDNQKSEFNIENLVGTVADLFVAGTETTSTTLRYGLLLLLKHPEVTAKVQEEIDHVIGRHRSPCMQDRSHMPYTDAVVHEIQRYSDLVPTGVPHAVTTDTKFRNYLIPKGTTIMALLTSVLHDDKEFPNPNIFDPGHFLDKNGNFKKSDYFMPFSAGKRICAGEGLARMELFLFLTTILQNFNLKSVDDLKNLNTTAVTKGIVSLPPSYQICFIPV

Cytochrome P450 2D6 [1] = target: T2, Cytochrome P450 2D6 (Homo sapiens, UniProt P10635); assay: Inhibition of CYP2D6 in human liver microsomes using dextromethorphan as substrate after 5 to 60 mins by LC-MS/MS analysis; format: ADME, Microsome
Cytochrome P450 2C19 = Cytochrome P450 2C19 (Homo sapiens, UniProt P33261); assay: Inhibition of CYP2C19 in human liver microsomes using mephenytoin as substrate after 5 to 60 mins by LC-MS/MS analysis; format: ADME, Microsome
Cytochrome P450 2C9 = Cytochrome P450 2C9 (Homo sapiens, UniProt P11712); assay: Inhibition of CYP2C9 in human liver microsomes using diclofenac as substrate after 5 to 60 mins by LC-MS/MS analysis; format: ADME, Microsome
Cytochrome P450 1A2 = target: T3, Cytochrome P450 1A2 (Homo sapiens, UniProt P05177); assay: Inhibition of CYP1A2 in human liver microsomes using phenacetin as substrate after 5 to 60 mins by LC-MS/MS analysis; format: ADME, Microsome
T3 sequence (P05177 whole entry): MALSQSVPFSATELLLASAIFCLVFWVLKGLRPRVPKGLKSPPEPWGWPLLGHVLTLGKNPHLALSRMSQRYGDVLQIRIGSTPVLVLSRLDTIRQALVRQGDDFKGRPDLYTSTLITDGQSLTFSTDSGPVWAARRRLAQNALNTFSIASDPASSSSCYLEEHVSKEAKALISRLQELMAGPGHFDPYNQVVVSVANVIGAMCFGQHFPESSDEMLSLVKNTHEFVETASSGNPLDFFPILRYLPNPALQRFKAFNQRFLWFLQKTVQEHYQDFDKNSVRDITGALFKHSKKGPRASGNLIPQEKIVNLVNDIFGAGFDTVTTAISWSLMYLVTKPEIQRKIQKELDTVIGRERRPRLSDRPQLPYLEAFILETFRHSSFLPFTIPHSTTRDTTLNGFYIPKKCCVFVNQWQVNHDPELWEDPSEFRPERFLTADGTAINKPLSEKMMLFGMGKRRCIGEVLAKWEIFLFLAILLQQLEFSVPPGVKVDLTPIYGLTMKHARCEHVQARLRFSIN

[2] = Blood clearance in Sprague-Dawley rat at 2.2 mg/kg, iv by LC-MS/MS analysis; format: ADME, organism-based; parameters: dose 2.2 mg/kg, route intravenous; conditions: whole blood
[3] = target: T4, Eukaryotic translation initiation factor 2-alpha kinase 3 (Homo sapiens, UniProt Q9NZJ5); assay: Inhibition of GST-tagged PERK cytoplasmic domain (536 to 1116) (unknown origin) assessed as biotinylated His6-tagged EIF2alpha phosphorylation preincubated for 30 mins followed by ATP and eIF2alpha addition measured after 1 hr by HTRF assay
T4 sequence (Q9NZJ5 whole entry): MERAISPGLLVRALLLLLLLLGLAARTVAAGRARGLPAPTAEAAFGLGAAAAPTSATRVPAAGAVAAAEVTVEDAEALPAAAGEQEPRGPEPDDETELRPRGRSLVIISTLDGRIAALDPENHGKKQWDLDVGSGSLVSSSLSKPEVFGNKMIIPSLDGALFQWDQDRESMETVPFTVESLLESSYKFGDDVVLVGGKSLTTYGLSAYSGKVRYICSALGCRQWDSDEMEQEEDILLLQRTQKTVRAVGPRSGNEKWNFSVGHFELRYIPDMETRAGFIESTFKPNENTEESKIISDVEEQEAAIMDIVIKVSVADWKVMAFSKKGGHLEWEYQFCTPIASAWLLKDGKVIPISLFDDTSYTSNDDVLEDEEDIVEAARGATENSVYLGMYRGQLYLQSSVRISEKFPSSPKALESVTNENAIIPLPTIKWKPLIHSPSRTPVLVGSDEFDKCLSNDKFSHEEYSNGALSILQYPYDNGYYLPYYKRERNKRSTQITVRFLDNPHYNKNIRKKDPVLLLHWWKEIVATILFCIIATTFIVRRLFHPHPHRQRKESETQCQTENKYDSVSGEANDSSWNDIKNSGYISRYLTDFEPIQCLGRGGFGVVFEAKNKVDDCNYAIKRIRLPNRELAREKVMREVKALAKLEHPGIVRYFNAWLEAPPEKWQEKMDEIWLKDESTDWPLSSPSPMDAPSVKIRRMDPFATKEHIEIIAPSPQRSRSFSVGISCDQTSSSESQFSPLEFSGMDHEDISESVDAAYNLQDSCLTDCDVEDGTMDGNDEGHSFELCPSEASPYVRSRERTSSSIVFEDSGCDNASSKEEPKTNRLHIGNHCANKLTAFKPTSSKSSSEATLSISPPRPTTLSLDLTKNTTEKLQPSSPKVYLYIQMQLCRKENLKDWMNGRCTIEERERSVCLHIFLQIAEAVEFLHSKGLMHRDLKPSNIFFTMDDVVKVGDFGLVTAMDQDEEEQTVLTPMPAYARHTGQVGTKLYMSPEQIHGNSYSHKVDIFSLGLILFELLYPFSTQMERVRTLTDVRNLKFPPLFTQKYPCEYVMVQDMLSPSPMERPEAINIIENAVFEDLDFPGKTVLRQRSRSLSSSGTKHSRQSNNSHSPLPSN

[4] = target: T4, Eukaryotic translation initiation factor 2-alpha kinase 3; assay: Inhibition of thapsigargin-induced autophosphorylation of PERK in human A549 cells preincubated for 1 hr followed by thapsigargin-induction measured after 1 hr by Western blotting analysis; format: cell-based
[5] = Oral bioavailability in beagle dog at 5.2 mg/kg by LC-MS/MS analysis; format: ADME, organism-based, Canis lupus familiaris; conditions: in vivo
[6] = Oral bioavailability in Sprague-Dawley rat at 4.3 mg/kg by LC-MS/MS analysis; format: ADME, organism-based; conditions: in vivo
[7] = Oral bioavailability in CD1 mouse at 13.4 mg/kg by LC-MS/MS analysis; format: ADME, organism-based; conditions: in vivo
[8] = AUC (0 to infinity) in beagle dog at 5.2 mg/kg, po by LC-MS/MS analysis; format: ADME, organism-based, Canis lupus familiaris; parameters: time infinity, dose 5.2 mg/kg, route oral; conditions: plasma
[9] = AUC (0 to infinity) in Sprague-Dawley rat at 4.3 mg/kg, po by LC-MS/MS analysis; format: ADME, organism-based; parameters: time infinity, dose 4.3 mg/kg, route oral; conditions: plasma
[10] = AUC (0 to infinity) in CD1 mouse at 13.4 mg/kg, po by LC-MS/MS analysis; format: ADME, organism-based; parameters: time infinity, dose 13.4 mg/kg, route oral; conditions: plasma
[11] = Half life in beagle dog at 2.9 mg/kg, iv by LC-MS/MS analysis; format: ADME, organism-based, Canis lupus familiaris; parameters: dose 2.9 mg/kg, route intravenous; conditions: in vivo
[12] = Half life in Sprague-Dawley rat at 2.2 mg/kg, iv by LC-MS/MS analysis; format: ADME, organism-based; parameters: dose 2.2 mg/kg, route intravenous; conditions: in vivo
[13] = Half life in CD1 mouse at 2 mg/kg, iv by LC-MS/MS analysis; format: ADME, organism-based; parameters: dose 2 mg/kg, route intravenous; conditions: in vivo
[14] = Volume of distribution at steady state in beagle dog at 2.9 mg/kg, iv by LC-MS/MS analysis; format: ADME, organism-based, Canis lupus familiaris; parameters: dose 2.9 mg/kg, route intravenous; conditions: in vivo, read-out: Vdss
[15] = Volume of distribution at steady state in Sprague-Dawley rat at 2.2 mg/kg, iv by LC-MS/MS analysis; format: ADME, organism-based; parameters: dose 2.2 mg/kg, route intravenous; conditions: in vivo, read-out: Vdss
[16] = Volume of distribution at steady state in CD1 mouse at 2 mg/kg, iv by LC-MS/MS analysis; format: ADME, organism-based; parameters: dose 2 mg/kg, route intravenous; conditions: in vivo, read-out: Vdss
[17] = Blood clearance in beagle dog at 2.9 mg/kg, iv by LC-MS/MS analysis; format: ADME, organism-based, Canis lupus familiaris; parameters: dose 2.9 mg/kg, route intravenous; conditions: whole blood
[18] = Blood clearance in CD1 mouse at 2 mg/kg, iv by LC-MS/MS analysis; format: ADME, organism-based; parameters: dose 2 mg/kg, route intravenous; conditions: whole blood
[19] = AUC (0 to infinity) in beagle dog at 2.9 mg/kg, iv by LC-MS/MS analysis; format: ADME, organism-based, Canis lupus familiaris; parameters: time infinity, dose 2.9 mg/kg, route intravenous; conditions: plasma
[20] = AUC (0 to infinity) in Sprague-Dawley rat at 2.2 mg/kg, iv by LC-MS/MS analysis; format: ADME, organism-based; parameters: time infinity, dose 2.2 mg/kg, route intravenous; conditions: plasma
[21] = AUC (0 to infinity) in CD1 mouse at 2 mg/kg, iv by LC-MS/MS analysis; format: ADME, organism-based; parameters: time infinity, dose 2 mg/kg, route intravenous; conditions: plasma
eIF-2-alpha kinase GCN2 = eIF-2-alpha kinase GCN2 (Homo sapiens, UniProt Q9P2K8); assay: Inhibition of GCN2 (unknown origin) assessed as EIF2AK4 phosphorylation
[22] = target: Interferon-induced, double-stranded RNA-activated protein kinase (Homo sapiens, UniProt P19525); assay: Inhibition of PKR (unknown origin) assessed as EIF2AK2 phosphorylation
[23] = target: Eukaryotic translation initiation factor 2-alpha kinase 1 (Homo sapiens, UniProt Q9BQI3); assay: Inhibition of HRI (unknown origin) assessed as EIF2AK1 phosphorylation
Cytochrome P450 2D6 [24] = target: T2, Cytochrome P450 2D6; assay: Inhibition of CYP2D6 in human liver microsomes using bufuralol as substrate after 5 to 60 mins by LC-MS/MS analysis; format: ADME, Microsome

Chain of Cytochrome P450 2C9 (P11712 whole entry): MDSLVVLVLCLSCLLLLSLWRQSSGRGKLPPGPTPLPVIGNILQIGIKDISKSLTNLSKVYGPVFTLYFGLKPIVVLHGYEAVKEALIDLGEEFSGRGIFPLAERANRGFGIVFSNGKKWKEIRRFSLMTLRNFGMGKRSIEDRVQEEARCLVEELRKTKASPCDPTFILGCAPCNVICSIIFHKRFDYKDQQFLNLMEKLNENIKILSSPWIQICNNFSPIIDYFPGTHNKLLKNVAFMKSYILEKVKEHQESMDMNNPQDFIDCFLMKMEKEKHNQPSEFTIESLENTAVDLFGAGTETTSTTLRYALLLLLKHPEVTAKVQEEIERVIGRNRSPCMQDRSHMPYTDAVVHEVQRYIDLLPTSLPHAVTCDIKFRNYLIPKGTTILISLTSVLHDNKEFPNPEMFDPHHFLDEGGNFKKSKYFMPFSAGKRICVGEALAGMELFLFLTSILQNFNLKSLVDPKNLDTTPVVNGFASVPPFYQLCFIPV
T2 sequence (P10635 whole entry): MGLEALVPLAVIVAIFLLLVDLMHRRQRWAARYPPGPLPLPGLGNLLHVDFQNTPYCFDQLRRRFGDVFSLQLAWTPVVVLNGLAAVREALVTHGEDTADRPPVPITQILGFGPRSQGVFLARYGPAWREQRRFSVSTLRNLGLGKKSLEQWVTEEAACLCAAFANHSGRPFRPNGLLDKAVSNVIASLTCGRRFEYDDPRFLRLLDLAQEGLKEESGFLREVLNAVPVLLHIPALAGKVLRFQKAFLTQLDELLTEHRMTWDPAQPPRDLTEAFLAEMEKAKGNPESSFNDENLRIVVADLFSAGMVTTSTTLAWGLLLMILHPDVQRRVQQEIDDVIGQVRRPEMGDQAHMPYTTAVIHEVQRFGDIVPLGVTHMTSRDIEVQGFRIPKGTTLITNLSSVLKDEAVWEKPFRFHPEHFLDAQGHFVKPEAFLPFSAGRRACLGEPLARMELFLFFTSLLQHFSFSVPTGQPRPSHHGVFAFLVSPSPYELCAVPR
Chain of Cytochrome P450 2C19 (P33261 whole entry): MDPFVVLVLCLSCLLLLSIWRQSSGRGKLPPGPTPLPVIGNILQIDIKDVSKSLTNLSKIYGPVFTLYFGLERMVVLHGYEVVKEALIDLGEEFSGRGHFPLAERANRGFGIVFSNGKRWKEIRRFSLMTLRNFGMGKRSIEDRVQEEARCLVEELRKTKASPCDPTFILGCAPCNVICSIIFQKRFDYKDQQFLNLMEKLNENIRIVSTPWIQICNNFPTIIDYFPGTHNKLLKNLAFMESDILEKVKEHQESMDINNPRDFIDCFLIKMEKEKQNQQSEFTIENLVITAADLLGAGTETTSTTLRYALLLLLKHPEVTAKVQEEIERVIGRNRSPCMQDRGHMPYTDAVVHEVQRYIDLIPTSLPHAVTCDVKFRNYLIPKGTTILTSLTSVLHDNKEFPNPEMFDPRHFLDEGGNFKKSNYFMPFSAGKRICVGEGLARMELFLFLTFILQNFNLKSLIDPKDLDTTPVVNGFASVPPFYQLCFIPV
Chain of Eukaryotic translation initiation factor 2-alpha kinase 1 (Q9BQI3 whole entry): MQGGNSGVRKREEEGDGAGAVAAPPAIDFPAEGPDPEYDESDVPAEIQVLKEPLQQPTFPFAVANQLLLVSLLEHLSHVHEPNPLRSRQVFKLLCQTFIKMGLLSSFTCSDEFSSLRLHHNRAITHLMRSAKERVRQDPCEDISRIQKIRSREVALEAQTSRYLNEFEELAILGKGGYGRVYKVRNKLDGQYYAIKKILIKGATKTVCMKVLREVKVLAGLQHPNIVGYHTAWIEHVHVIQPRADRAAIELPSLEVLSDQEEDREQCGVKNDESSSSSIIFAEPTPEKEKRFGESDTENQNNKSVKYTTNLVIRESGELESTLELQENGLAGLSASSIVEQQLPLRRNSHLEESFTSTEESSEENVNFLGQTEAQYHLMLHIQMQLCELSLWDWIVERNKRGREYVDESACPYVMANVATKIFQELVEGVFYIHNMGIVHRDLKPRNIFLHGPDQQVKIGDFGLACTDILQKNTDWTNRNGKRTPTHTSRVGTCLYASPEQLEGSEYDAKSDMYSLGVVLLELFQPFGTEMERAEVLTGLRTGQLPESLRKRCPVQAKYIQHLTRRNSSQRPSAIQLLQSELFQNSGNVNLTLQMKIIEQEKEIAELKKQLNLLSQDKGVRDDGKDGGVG
Chain of Interferon-induced, double-stranded RNA-activated protein kinase (P19525 whole entry): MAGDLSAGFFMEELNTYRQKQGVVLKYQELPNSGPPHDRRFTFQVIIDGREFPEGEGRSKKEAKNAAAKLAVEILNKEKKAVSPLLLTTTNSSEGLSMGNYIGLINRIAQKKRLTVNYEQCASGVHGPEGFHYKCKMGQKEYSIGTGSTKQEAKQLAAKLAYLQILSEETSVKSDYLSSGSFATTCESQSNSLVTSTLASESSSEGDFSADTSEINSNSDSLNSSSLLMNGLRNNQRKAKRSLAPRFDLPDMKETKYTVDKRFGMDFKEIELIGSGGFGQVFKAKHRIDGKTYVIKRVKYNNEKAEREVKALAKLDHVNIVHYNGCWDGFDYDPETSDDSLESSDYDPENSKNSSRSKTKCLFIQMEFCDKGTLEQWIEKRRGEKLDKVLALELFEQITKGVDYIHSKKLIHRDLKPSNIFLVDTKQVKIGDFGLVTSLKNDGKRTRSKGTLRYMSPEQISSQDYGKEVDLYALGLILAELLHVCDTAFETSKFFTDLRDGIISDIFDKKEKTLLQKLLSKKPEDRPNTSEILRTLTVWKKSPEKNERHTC
Chain of eIF-2-alpha kinase GCN2 (Q9P2K8 whole entry): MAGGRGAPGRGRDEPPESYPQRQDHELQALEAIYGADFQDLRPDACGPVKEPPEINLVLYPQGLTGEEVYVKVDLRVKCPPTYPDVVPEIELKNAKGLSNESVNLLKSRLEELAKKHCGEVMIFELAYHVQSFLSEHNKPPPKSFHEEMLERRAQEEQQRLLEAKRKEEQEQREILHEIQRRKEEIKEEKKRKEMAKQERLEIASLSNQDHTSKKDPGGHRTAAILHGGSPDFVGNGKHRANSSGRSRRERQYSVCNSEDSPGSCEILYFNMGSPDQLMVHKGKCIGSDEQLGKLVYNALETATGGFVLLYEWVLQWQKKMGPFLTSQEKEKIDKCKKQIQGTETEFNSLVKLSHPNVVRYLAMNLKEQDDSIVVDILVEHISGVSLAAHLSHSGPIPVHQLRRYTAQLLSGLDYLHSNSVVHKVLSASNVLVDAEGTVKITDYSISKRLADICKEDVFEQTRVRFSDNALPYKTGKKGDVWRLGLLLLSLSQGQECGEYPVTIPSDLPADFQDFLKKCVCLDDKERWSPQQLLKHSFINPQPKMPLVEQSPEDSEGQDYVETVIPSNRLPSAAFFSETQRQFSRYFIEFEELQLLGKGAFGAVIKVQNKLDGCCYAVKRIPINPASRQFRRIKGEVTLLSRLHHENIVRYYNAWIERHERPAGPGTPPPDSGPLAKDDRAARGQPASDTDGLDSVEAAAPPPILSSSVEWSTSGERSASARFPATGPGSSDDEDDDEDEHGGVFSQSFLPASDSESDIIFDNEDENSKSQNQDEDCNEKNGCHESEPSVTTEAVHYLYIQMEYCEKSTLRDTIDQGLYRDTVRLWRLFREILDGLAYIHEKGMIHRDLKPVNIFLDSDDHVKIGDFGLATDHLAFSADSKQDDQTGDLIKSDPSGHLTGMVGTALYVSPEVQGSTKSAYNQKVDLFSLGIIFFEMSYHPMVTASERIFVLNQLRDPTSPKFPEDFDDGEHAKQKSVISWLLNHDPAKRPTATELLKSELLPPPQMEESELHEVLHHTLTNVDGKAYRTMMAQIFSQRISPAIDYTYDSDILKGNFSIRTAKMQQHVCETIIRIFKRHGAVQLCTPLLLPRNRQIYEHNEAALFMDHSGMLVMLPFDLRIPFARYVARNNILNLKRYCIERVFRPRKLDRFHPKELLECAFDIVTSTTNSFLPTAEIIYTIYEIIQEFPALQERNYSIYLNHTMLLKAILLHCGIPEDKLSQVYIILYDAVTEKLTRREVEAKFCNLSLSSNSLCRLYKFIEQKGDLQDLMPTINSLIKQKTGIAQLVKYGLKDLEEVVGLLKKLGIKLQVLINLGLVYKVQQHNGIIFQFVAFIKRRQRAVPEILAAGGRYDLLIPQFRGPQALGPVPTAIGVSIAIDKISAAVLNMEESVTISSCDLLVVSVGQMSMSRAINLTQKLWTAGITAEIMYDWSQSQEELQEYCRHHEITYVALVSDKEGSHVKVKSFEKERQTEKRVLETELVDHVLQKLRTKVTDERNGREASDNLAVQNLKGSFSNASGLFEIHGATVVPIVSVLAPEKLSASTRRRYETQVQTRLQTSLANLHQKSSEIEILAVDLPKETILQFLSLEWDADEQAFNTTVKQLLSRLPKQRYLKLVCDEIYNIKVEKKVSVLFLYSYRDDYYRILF

Compound: Cn1cc(-c2ccc3c(c2)CCN3C(=O)Cc2cccc(C(F)(F)F)c2)c2c(N)ncnc21
- IC50 (Cytochrome P450 2C8): 890 nM
- IC50 (Cytochrome P450 2D6 [1]): 23000 nM
- IC50 (Cytochrome P450 2C19): 7000 nM
- IC50 (Cytochrome P450 2C9): 4500 nM
- IC50 (Cytochrome P450 1A2): 21000 nM
- clearance [2]: 21.5 mL/min/kg

Compound: Cn1cc(-c2ccc3c(c2)CCN3C(=O)Cc2ccccn2)c2c(N)ncnc21
- IC50 [3]: 19.1 nM

Compound: Cn1cc(-c2ccc3c(c2)CCN3C(=O)Cc2cccnc2)c2c(N)ncnc21
- IC50 [3]: 23.4 nM

Compound: Cn1cc(-c2ccc3c(c2)CCN3C(=O)Cc2ccncc2)c2c(N)ncnc21
- IC50 [3]: 63.8 nM

Compound: Cc1cccc(CC(=O)N2CCc3cc(-c4cn(C)c5ncnc(N)c45)ccc32)n1
- clearance [2]: 10.5 mL/min/kg
- IC50 [4]: 100 nM
- IC50 [3]: 2.5 nM

Compound: Cc1cccc(CC(=O)N2CCc3c2ccc(-c2cn(C)c4ncnc(N)c24)c3F)n1
- bioavailability [5]: 100%
- bioavailability [6]: 100%
- bioavailability [7]: 52%
- AUC(0-inf) [8]: 6210 ng·h/mL
- AUC(0-inf) [9]: 8020 ng·h/mL
- AUC(0-inf) [10]: 13400 ng·h/mL
- half-life [11]: 3.1 h
- half-life [12]: 1.4 h
- half-life [13]: 1.25 h
- Vd [14]: 2.8 L/kg
- Vd [15]: 0.6 L/kg
- Vd [16]: 0.72 L/kg
- clearance [17]: 15.5 mL/min/kg
- clearance [18]: 10.5 mL/min/kg
- AUC(0-inf) [19]: 3130 ng·h/mL
- AUC(0-inf) [20]: 3920 ng·h/mL
- AUC(0-inf) [21]: 3270 ng·h/mL
- IC50 (eIF-2-alpha kinase GCN2): 3390 nM
- IC50 [22]: 905 nM
- IC50 [23]: 460 nM
- IC50 (Cytochrome P450 2C8): > 25000 nM
- IC50 (Cytochrome P450 2D6 [24]): > 25000 nM
- IC50 (Cytochrome P450 2C19): > 25000 nM
- IC50 (Cytochrome P450 2C9): 24700 nM
- IC50 (Cytochrome P450 1A2): > 25000 nM
- clearance [2]: 9.5 mL/min/kg
- IC50 [4]: 30 nM
- IC50 [3]: 0.8 nM
